In ChEMBL document CHEMBL1201862, “PubChem BioAssay data set” (2004):
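Interpolation was linear, between the two tested concentrations surrounding the appropriate level; five concentrations were tested over 48 hours in 96-well plates. GI50 is the concentration that inhibits growth by half.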 Calls of active or inactive are those of the source. Rule as the data show it: active = GI50 up to about 1.1 µM and inactive = higher.

How the values were obtained:
Assay in all cases: NCI tumour cell line growth inhibition, 48 h
786-0 = system: 786-0
A549 = system: A549
EKVX = system: EKVX
HCT-15 = system: HCT-15
HT-29 = system: HT-29
IGROV-1 = system: IGROV-1
MDA-MB-231 = system: MDA-MB-231
MDA-MB-435 = system: MDA-MB-435
MDA-N = system: MDA-N
Malme-3M = system: Malme-3M
OVCAR-5 = system: OVCAR-5
RPMI-8226 = system: RPMI-8226
SK-MEL-28 = system: SK-MEL-28
SK-MEL-2 = system: SK-MEL-2
SK-OV-3 = system: SK-OV-3
SW-620 = system: SW-620
T47D = system: T47D
U-251 = system: U-251
UACC-257 = system: UACC-257
UACC-62 = system: UACC-62

| Structure (SMILES) | GI50 (786-0) | GI50 (A549) | GI50 (EKVX) | GI50 (HCT-15) | GI50 (HT-29) | GI50 (IGROV-1) | GI50 (MDA-MB-231) | GI50 (MDA-MB-435) | GI50 (MDA-N) | GI50 (Malme-3M) | GI50 (OVCAR-5) | GI50 (RPMI-8226) | GI50 (SK-MEL-28) | GI50 (SK-MEL-2) | GI50 (SK-OV-3) | GI50 (SW-620) | GI50 (T47D) | GI50 (U-251) | GI50 (UACC-257) | GI50 (UACC-62) |
| --- | --- | --- | --- | --- | --- | --- | --- | --- | --- | --- | --- | --- | --- | --- | --- | --- | --- | --- | --- | --- |
| CC(=O)NC1C(OCc2ccccc2)OC(CO)C(O)C1OCC(=O)N1CCCC1C(=O)NC(CCC(=O)NCCCCCNc1c2ccccc2nc2cccc([N+](=O)[O-])c12)C(N)=O (stereo not given) | 0.0131 µM (active) | 0.0134 µM (active) | 0.148 µM (active) | 0.0164 µM | 0.00125 µM (active) | 0.232 µM (active) | 0.0175 µM (active) | 0.0154 µM (active) | 0.019 µM (active) | 0.0188 µM (active) | 0.0231 µM (active) | 0.00331 µM (active) | 0.0307 µM (active) | 0.019 µM (active) | 0.0869 µM (active) | 0.00399 µM (active) | 0.578 µM (active) | 0.0108 µM (active) | 0.0481 µM (active) | 0.0225 µM (active) |
| CSc1nc2ccccc2c(=O)n1-c1cccc(C)c1 | > 100 µM (inactive) | 94.2 µM (inactive) | 73.6 µM (inactive) | 36.2 µM | 38.6 µM (inactive) | 39.2 µM (inactive) | > 100 µM (inactive) | 29.1 µM (inactive) | 23.6 µM (inactive) | > 100 µM (inactive) | > 100 µM (inactive) | 39.4 µM (inactive) | > 100 µM (inactive) | 70.5 µM (inactive) | > 100 µM (inactive) | 31.9 µM (inactive) | 29.2 µM (inactive) | > 100 µM (inactive) | 31.1 µM (inactive) | 71 µM (inactive) |
| Nc1nc(Cl)c(Cl)c(NCC2(O)CCC2)n1 | > 100 µM (inactive) | 76.4 µM (inactive) | 22 µM (inactive) | 38.9 µM | > 100 µM (inactive) | 45.6 µM (inactive) | 74.1 µM (inactive) | 88.3 µM (inactive) | > 100 µM (inactive) | 62.7 µM (inactive) | > 100 µM (inactive) | 42 µM (inactive) | > 100 µM (inactive) | > 100 µM (inactive) | 39.3 µM (inactive) | > 100 µM (inactive) | 2.76 µM (inactive) | 92.7 µM (inactive) | > 100 µM (inactive) | 36.2 µM (inactive) |
| C/C(=N\Nc1nc2ccccc2s1)c1cc(C)ncn1 | 0.507 µM (active) | 2.25 µM (inactive) | 0.269 µM (active) | 0.394 µM | 0.0637 µM (active) | 0.824 µM (active) | 0.286 µM (active) | 2.81 µM (inactive) | 3.98 µM (inactive) | 0.372 µM (active) | 1.27 µM (inactive) | 0.337 µM (active) | 3.09 µM (inactive) | 3.78 µM (inactive) | 1.28 µM (inactive) | 0.352 µM (active) | 0.206 µM (active) | 1 µM (active) | 0.29 µM (active) | 0.979 µM (active) |
| O=C1C2SC34c5c2c2ccccc2n5CCC3CCCN14 (stereo not given) | 27.5 µM (inactive) | > 100 µM (inactive) | > 100 µM (inactive) | > 100 µM | > 100 µM (inactive) | 80.7 µM (inactive) | 39.6 µM (inactive) | 89.1 µM (inactive) | > 100 µM (inactive) | > 100 µM (inactive) | > 100 µM (inactive) | > 100 µM (inactive) | > 100 µM (inactive) | 74.6 µM (inactive) | > 100 µM (inactive) | > 100 µM (inactive) | 91.2 µM (inactive) | 33.9 µM (inactive) | 15 µM (inactive) | > 100 µM (inactive) |
| COc1ccc(/C(Cl)=C(\C=O)c2cc(OC)c(OC)c(OC)c2)cc1OC | 34.4 µM (inactive) | 33.3 µM (inactive) | 24.7 µM (inactive) | 19.8 µM | 12.8 µM (inactive) | 44.5 µM (inactive) | 68.5 µM (inactive) | 48.4 µM (inactive) | 12.3 µM (inactive) | 15 µM (inactive) | 67.8 µM (inactive) | 10.8 µM (inactive) | 61.8 µM (inactive) | 19.6 µM (inactive) | 72.4 µM (inactive) | > 61.2 µM (inactive) | 20.4 µM (inactive) | 23 µM (inactive) | 62.2 µM (inactive) | 15.7 µM (inactive) |
| CCOC(=O)Nc1nc(-c2ccccc2)c(C)s1 | > 100 µM (inactive) | > 100 µM (inactive) | 23.7 µM (inactive) | 40.9 µM | 48.6 µM (inactive) | 44.2 µM (inactive) | > 100 µM (inactive) | > 100 µM (inactive) | > 100 µM (inactive) | > 100 µM (inactive) | > 100 µM (inactive) | > 100 µM (inactive) | > 100 µM (inactive) | > 100 µM (inactive) | > 100 µM (inactive) | > 100 µM (inactive) | 47.3 µM (inactive) | > 100 µM (inactive) | > 100 µM (inactive) | > 100 µM (inactive) |
| Brc1ccc(/N=C/C=C(\Nc2ccc(Br)cc2)C23CC4CC(CC(C4)C2)C3)cc1 | 13.9 µM (inactive) | 22.5 µM (inactive) | 18.8 µM (inactive) | 6.34 µM | 18 µM (inactive) | 11.3 µM (inactive) | 15.6 µM (inactive) | 5.11 µM (inactive) | 12.4 µM (inactive) | 19.1 µM (inactive) | 14.7 µM (inactive) | 14.7 µM (inactive) | 18.5 µM (inactive) | 8.73 µM (inactive) | 18.6 µM (inactive) | 18.1 µM (inactive) | 8.07 µM (inactive) | 14.4 µM (inactive) | 16.6 µM (inactive) | 1.17 µM (inactive) |
| C1CN(c2nnc(N3CCC3)nn2)C1 | 34.8 µM (inactive) | > 100 µM (inactive) | > 85.3 µM (inactive) | > 100 µM | 35.6 µM (inactive) | > 100 µM (inactive) | > 42.6 µM (inactive) | 18.4 µM (inactive) | 17.3 µM (inactive) | 44.4 µM (inactive) | 41.2 µM (inactive) | > 100 µM (inactive) | 44.5 µM (inactive) | 44.1 µM (inactive) | > 100 µM (inactive) | 32.3 µM (inactive) | > 100 µM (inactive) | > 71.8 µM (inactive) | 22.9 µM (inactive) | 19.3 µM (inactive) |
| NC1(C(=O)OCc2ccccc2)CCCC1 | 18 µM (inactive) | 28.8 µM (inactive) | 24.5 µM (inactive) | 22.9 µM | 37.8 µM (inactive) | 18.5 µM (inactive) | 15.8 µM (inactive) | 15.1 µM (inactive) | 20.1 µM (inactive) | 16.5 µM (inactive) | 28.4 µM (inactive) | 14.2 µM (inactive) | 22.6 µM (inactive) | 17.9 µM (inactive) | 21.9 µM (inactive) | 36.6 µM (inactive) | 25.3 µM (inactive) | 16.3 µM (inactive) | 19.2 µM (inactive) | 15.9 µM (inactive) |
| [O-][n+]1onc2c3nn(-c4ccccc4)nc3ccc21 | > 100 µM (inactive) | > 100 µM (inactive) | > 74.8 µM (inactive) | 49.5 µM | 35.2 µM (inactive) | > 100 µM (inactive) | > 100 µM (inactive) | > 100 µM (inactive) | > 100 µM (inactive) | > 100 µM (inactive) | > 100 µM (inactive) | 6.32 µM (inactive) | > 100 µM (inactive) | > 100 µM (inactive) | > 100 µM (inactive) | 65.8 µM (inactive) | 7.4 µM (inactive) | > 100 µM (inactive) | 28.8 µM (inactive) | > 86.1 µM (inactive) |
